Legend:
Type in all cases: functional
[1] = Cytotoxicity against human OVCAR3 cells assessed as cell growth at 5 nM after 48 hrs by SRB assay; conditions: OVCAR-3, 48 h, read-out: Activity
T47D [2] = experiment: Cytotoxicity against human T47D cells assessed as cell growth at 50 nM after 48 hrs by SRB assay; conditions: read-out: Activity
[3] = Cytotoxicity against human PC3 cells assessed as cell growth at 5 uM after 48 hrs by SRB assay; conditions: PC-3, 48 h, read-out: Activity
[4] = Cytotoxicity against human COLO205 cells assessed as cell growth at 5 nM after 48 hrs by SRB assay; conditions: COLO 205, 48 h, read-out: Activity
K562 [5] = experiment: Cytotoxicity against human K562 cells assessed as cell growth at 5 uM after 48 hrs by SRB assay; conditions: K562, 48 h, read-out: Activity
[6] = Cytotoxicity against human SF295 cells assessed as cell growth at 50 uM after 48 hrs by SRB assay; conditions: SF-295, 48 h, read-out: Activity
[7] = Cytotoxicity against human SW620 cells assessed as cell growth at 5 uM after 48 hrs by SRB assay; conditions: SW-620, 48 h, read-out: Activity
A498 = experiment: Cytotoxicity against human A498 cells assessed as cell growth at 50 uM after 48 hrs by SRB assay; conditions: A498, 48 h, read-out: Activity
[8] = Cytotoxicity against human OVCAR5 cells assessed as cell growth at 5 nM after 48 hrs by SRB assay; conditions: OVCAR-5, 48 h, read-out: Activity
K562 [9] = experiment: Cytotoxicity against human K562 cells assessed as cell growth at 5 nM after 48 hrs by SRB assay; conditions: K562, 48 h, read-out: Activity
MDA-MB-468 [10] = experiment: Cytotoxicity against human MDA-MB-468 cells assessed as cell growth at 5 nM after 48 hrs by SRB assay; conditions: MDA-MB-468, 48 h, read-out: Activity
[11] = Cytotoxicity against human OVCAR3 cells assessed as cell growth at 50 nM after 48 hrs by SRB assay; conditions: OVCAR-3, 48 h, read-out: Activity
[12] = Cytotoxicity against human SNB75 cells assessed as cell growth at 5 uM after 48 hrs by SRB assay; conditions: SNB-75, 48 h, read-out: Activity
SK-MEL-2 [13] = experiment: Cytotoxicity against human SK-MEL-2 cells assessed as cell growth at 50 nM after 48 hrs by SRB assay; conditions: SK-MEL-2, 48 h, read-out: Activity
SK-MEL-5 = experiment: Cytotoxicity against human SK-MEL-5 cells assessed as cell growth at 5 uM after 48 hrs by SRB assay; conditions: SK-MEL-5, 48 h, read-out: Activity
[14] = Cytotoxicity against human LOXIMVI cells assessed as cell growth at 5 uM after 48 hrs by SRB assay; conditions: LOX IMVI, read-out: Activity
[15] = Cytotoxicity against human RPMI8226 cells assessed as cell growth at 50 uM after 48 hrs by SRB assay; conditions: RPMI-8226, 48 h, read-out: Activity
786-0 = experiment: Cytotoxicity against human 786-0 cells assessed as cell growth at 50 nM after 48 hrs by SRB assay; conditions: 786-0, 48 h, read-out: Activity
SK-MEL-2 [16] = experiment: Cytotoxicity against human SK-MEL-2 cells assessed as cell growth at 5 uM after 48 hrs by SRB assay; conditions: SK-MEL-2, 48 h, read-out: Activity
[17] = Cytotoxicity against human PC3 cells assessed as cell growth at 50 uM after 48 hrs by SRB assay; conditions: PC-3, 48 h, read-out: Activity
[18] = Cytotoxicity against human IGROV1 cells assessed as cell growth at 5 uM after 48 hrs by SRB assay; conditions: IGROV-1, 48 h, read-out: Activity
[19] = Cytotoxicity against human Hs 578T cells assessed as cell growth at 10^-4 M after 48 hrs by SRB assay; conditions: read-out: Activity
[20] = Cytotoxicity against human HCT15 cells assessed as cell growth at 10^-7 M after 48 hrs by SRB assay; conditions: HCT-15, 48 h, read-out: Activity
[21] = Cytotoxicity against human SKOV3 cells assessed as cell growth at 10^-7 M after 48 hrs by SRB assay; conditions: SK-OV-3, 48 h, read-out: Activity
T47D [22] = experiment: Cytotoxicity against human T47D cells assessed as cell growth at 10^-4 M after 48 hrs by SRB assay; conditions: read-out: Activity
Malme-3M = experiment: Cytotoxicity against human MALME-3M cells assessed as cell growth at 10^-5 M after 48 hrs by SRB assay; conditions: read-out: Activity
[23] = Cytotoxicity against human OVCAR5 cells assessed as cell growth at 10^-5 M after 48 hrs by SRB assay; conditions: OVCAR-5, 48 h, read-out: Activity
KM12 = experiment: Cytotoxicity against human KM12 cells assessed as cell growth at 10^-8 M after 48 hrs by SRB assay; conditions: KM12, 48 h, read-out: Activity
SK-MEL-2 [24] = experiment: Cytotoxicity against human SK-MEL-2 cells assessed as cell growth at 10^-6 M after 48 hrs by SRB assay; conditions: SK-MEL-2, 48 h, read-out: Activity
K562 [25] = experiment: Cytotoxicity against human K562 cells assessed as cell growth at 10^-4 M after 48 hrs by SRB assay; conditions: K562, 48 h, read-out: Activity
[26] = Cytotoxicity against human HOP62 cells assessed as cell growth at 10^-8 M after 48 hrs by SRB assay; conditions: HOP-62, 48 h, read-out: Activity
SK-MEL-2 [27] = experiment: Cytotoxicity against human SK-MEL-2 cells assessed as cell growth at 10^-5 M after 48 hrs by SRB assay; conditions: SK-MEL-2, 48 h, read-out: Activity
MDA-MB-435 = experiment: Cytotoxicity against human MDA-MB-435 cells assessed as cell growth at 10^-7 M after 48 hrs by SRB assay; conditions: MDA-MB-435, 48 h, read-out: Activity
[28] = Cytotoxicity against human HCT116 cells assessed as cell growth at 10^-5 M after 48 hrs by SRB assay; conditions: HCT-116, 48 h, read-out: Activity
MDA-MB-468 [29] = experiment: Cytotoxicity against human MDA-MB-468 cells assessed as cell growth at 10^-8 M after 48 hrs by SRB assay; conditions: MDA-MB-468, 48 h, read-out: Activity
MDA-MB-468 [30] = experiment: Cytotoxicity against human MDA-MB-468 cells assessed as cell growth at 10^-7 M after 48 hrs by SRB assay; conditions: MDA-MB-468, 48 h, read-out: Activity
NCI-H460 = experiment: Cytotoxicity against human NCI-H460 cells assessed as cell growth at 10^-5 M after 48 hrs by SRB assay; conditions: NCI-H460, 48 h, read-out: Activity
U-251 = experiment: Cytotoxicity against human U251 cells assessed as cell growth at 10^-6 M after 48 hrs by SRB assay; conditions: U-251, 48 h, read-out: Activity
CCRF-CEM [31] = experiment: Cytotoxicity against human CCRF-CEM cells assessed as cell growth at 10^-5 M after 48 hrs by SRB assay; conditions: read-out: Activity
T47D [32] = experiment: Cytotoxicity against human T47D cells assessed as cell growth at 10^-6 M after 48 hrs by SRB assay; conditions: read-out: Activity
[33] = Cytotoxicity against human SKOV3 cells assessed as cell growth at 10^-4 M after 48 hrs by SRB assay; conditions: SK-OV-3, 48 h, read-out: Activity
CCRF-CEM [34] = experiment: Cytotoxicity against human CCRF-CEM cells assessed as cell growth at 10^-4 M after 48 hrs by SRB assay; conditions: read-out: Activity

## CCCCCCCCCC(=O)Oc1ccc(/C(=C(/C)c2ccccc2)c2ccc(OCCN3CCCC3)cc2)cc1
[1]
  growth at 0.005 µM: 108%
T47D [2]
  growth at 0.05 µM: 62%
[3]
  growth at 5 µM: 89%
[4]
  growth at 0.005 µM: 104%
K562 [5]
  growth at 5 µM: 74%
[6]
  growth at 50 µM: -94%
[7]
  growth at 5 µM: 95%
A498
  growth at 50 µM: -84%
[8]
  growth at 0.005 µM: 99%
K562 [9]
  growth at 0.005 µM: 100%
MDA-MB-468 [10]
  growth at 0.005 µM: 96%
[11]
  growth at 0.05 µM: 104%
[12]
  growth at 5 µM: 69%
SK-MEL-2 [13]
  growth at 0.05 µM: 101%
SK-MEL-5
  growth at 5 µM: 90%
[14]
  growth at 5 µM: 89%
[15]
  growth at 50 µM: -52%
786-0
  growth at 0.05 µM: 94%
SK-MEL-2 [16]
  growth at 5 µM: 100%
[17]
  growth at 50 µM: -90%
[18]
  growth at 5 µM: 84%

## C/C(=C(/c1ccc(O)cc1)c1ccc(OCCN2CCCC2)cc1)c1ccccc1
[19]
  growth at 100 µM: -43%
[20]
  growth at 0.1 µM: 91%
[21]
  growth at 0.1 µM: 93%
T47D [22]
  growth at 100 µM: -67%
Malme-3M
  growth at 10 µM: -77%
[23]
  growth at 10 µM: 46%
KM12
  growth at 0.01 µM: 102%
SK-MEL-2 [24]
  growth at 1 µM: 99%
K562 [25]
  growth at 100 µM: -70%
[26]
  growth at 0.01 µM: 90%
SK-MEL-2 [27]
  growth at 10 µM: -67%
MDA-MB-435
  growth at 0.1 µM: 97%
[28]
  growth at 10 µM: 1%
MDA-MB-468 [29]
  growth at 0.01 µM: 99%
MDA-MB-468 [30]
  growth at 0.1 µM: 97%
NCI-H460
  growth at 10 µM: -38%
U-251
  growth at 1 µM: 95%
CCRF-CEM [31]
  growth at 10 µM: -1%
T47D [32]
  growth at 1 µM: 48%
[33]
  growth at 100 µM: -98%
CCRF-CEM [34]
  growth at 100 µM: -71%

From ChEMBL document CHEMBL3774317, “Design and synthesis of novel tamoxifen analogues that avoid CYP2D6 metabolism” (Eur J Med Chem, 2016)
